Experimental data from patent US10934263B2, “Charged ion channel blockers and methods for use” (Nocion Therapeutics, Inc., priority 2019, dated 2021).

How the values were obtained:
NaV1.7 [1] = biological target: T1, NaV1.7 (Homo sapiens, UniProt Q15858); experiment: Automated patch clamp (Qube 384), internal block of NaV1.7 in HEK293 cells; type: cell-based; details: compound in internal solution, read-out: Nav1.7 Intracellular Inhibition (IC50)
T1 construct: expressed in transfected cells; tetracycline-inducible, kept under hygromycin and blasticidin
Method: (§1) NaV1.7 was expressed in HEK293 cells upon induction with tetracycline. Cells were cultured in DMEM containing 10% dialyzed Fetal Bovine Serum (VWR, Radnor, Pa.), 1% Glutamax (VWR, Radnor, Pa.), 1% Penicillin-Streptomycin (VWR, Radnor, Pa.), 100 mg/L Hygromycin (Thermo Fisher Scientific, Waltham, Mass. and 5 mg/L Blasticidin (Alfa Aesar, Haverhill, Mass.). Cells were grown and maintained at 37° C. in a humidified environment containing 10% CO2 in air. Cells were detached from the culture flask for passage and harvested using 0.05% Trypsin-EDTA (Thermo Fisher Scientific, Waltham, Mass.). To induce NaV1.7, cells were induced with tetracycline (0.1-1 μg/mL, IBI Scientific, Peosta, Iowa) the day before recording.
(§2) Before experiments, cells were washed with DPBS (VWR, Radnor, Pa.), digested with Detachin (VWR Radnor, Pa.) and then triturated 10 times in CHO Serum-Free Media (VWR Radnor, Pa.) to resuspend the cells and to break apart cell aggregates. Cells were counted and the final concentration was set at 2-5 million cells per mL.
(§3) The intracellular solution contained the following: 140 mM CsF, 1 mM/5 mM EGTA/CsOH, 10 mM HEPES, 10 mM NaCl, adjusted to pH 7.3 with CsOH, and osmolality to 320 with sucrose. The external solution contained the following: 145 mM NaCl, 4 mM KCl, 1 mM MgCl2, 2 mM CaCl2, 10 mM HEPES, 10 mM Glucose, adjusted to pH 7.4 with CsOH and osmolality to 305 with sucrose. All chemicals are from Sigma-Aldrich, St. Louis, Mo. In order to test the degree of internal block by test compounds, the compounds were dissolved in internal solution at the indicated test concentration. […] In order to test the degree of external block by test compounds the compounds were dissolved in external solution at the indicated test concentration.
(§4) Automated Patch Clamps were performed on Qube 384 (Sophion Bioscience, Woburn Mass.) with multihole Qchips at a temperature setting of 22 degrees. The whole cells configuration was formed with default Qube seal and break-in parameter. The membrane potential was held at −100 mV before the voltage protocol began. Two voltage protocols were followed.
(§5) Step 1: Cells were held at −100 mV with a depolarized pulse to −20 mV for 10 ms, the interval was set at 5 s. Currents were corrected by default leak subtraction from every pulse. The duration was set at 5 mins.
(§6) Step 2: Cells were held at −100 mV with a depolarized pulse to −20 mV for 10 ms. The frequency was 5 Hz. Currents were corrected by leak subtraction calculated before step 2. The duration was set at 4 mins.
After Step 2, the Qchip was removed from the recording chamber. The internal solution was changed with solutions containing test compounds. Qchips were held at −100 mV without pulsing after being replaced in the recording chamber. The total solution switching time was 8 minutes. After the internal solution exchange, Cells were recorded and step 2 for repeated for 10 minutes.
Data analysis was performed by Sophion Analyzer. Cells were filtered with minimum 50 MOhm seal resistance and minimum 5 nA starting current. The rundown of the currents was corrected with control cells (Non-Drug). The remaining was calculated by averaging last 3 points in the end of experiments. The base line was calculated as the average of last 3 points of Step 2. IC50 curves were plotted with DR-plots/Hill function (a dose-response plot with a Hill fit). Data analysis was performed by Sophion Analyzer.

NaV1.7 [2] = biological target: T1, NaV1.7; experiment: Automated patch clamp (Qube 384), external block of NaV1.7 in HEK293 cells; type: cell-based; details: compound in external solution, read-out: Nav1.7 Extracellular Inhibition (IC50)
Method: as §1, §2, §3, §4, §5, §6
After Step 2, the external solution was changed with solutions containing test compounds. Qchips were held at −100 mV without pulsing. The total solution switching time was 8 minutes. After the external solution exchange, cells were recorded using the same procedure as step 2 for 10 minutes.
Data analysis was performed by Sophion Analyzer. Data were corrected with control cells (Non-Drug). The IC50 data were plotted with DR-plots/Hill function (a dose-response plot with a Hill fit).

NaV1.7 [3] = biological target: T1, NaV1.7; experiment: Whole cell patch clamp, internal block of NaV1.7 current (compound in internal solution); type: cell-based; details: compound applied internally, manual patch clamp, read-out: Nav1.7 Intracellular Inhibition
Method: Representative compounds of the invention were synthesized according to the described methods and tested for the ability to inhibit voltage-gated sodium channels.
as §1, with “expressed” for “expressed in HEK293 cells”, “recording and plated onto 24-well plates. Cells were washed with DPBS (VWR, Radnor, Pa.), trypsinized and then triturated five times in 10 mL of growth media to break apart cell aggregates. For one 24-well plate, 2 mL of cell suspension was mixed with 23 mL of fresh growth media and 0.1-1 μg/mL tetracycline added. 1 ml of mixed media with cells was then added to each well of a 24-well plate, with a 12 mm coverslip already placed in the bottom of the well. Cells were then incubated in 37° C. and 10% CO2 overnight.” for “recording.”
The intracellular solution contained the following (in mM) CsCl 135, NaCl 10, EGTA 10, HEPES 10, MgCl2 2, adjusted to pH 7.2 with CsOH. The external solution was a normal Ringer solution containing (in mM) NaCl 155, HEPES 10, glucose 10, KCl 3.5, CaCl2 1.5, MgCl2 1 adjusted to pH 7.4 with NaOH. CsCl is from Alfa Aesar, Haverhill, Mass. All other chemicals are from Sigma-Aldrich, St. Louis, Mo. In order to test the degree of internal block by test compounds the compounds were dissolved in internal solution at the indicated test concentration. […] In order to test the degree of external block by test compounds the compounds were dissolved in external solution at the indicated test concentration.
18-24 hours after cells were induced with tetracycline, coverslips were placed into a chamber filled with Normal Ringer solution at room temperature and the chamber placed on a microscope. Pipettes were pulled from borosilicate glass on a P97 puller (Sutter Instrument, Novato, Calif.) and polished with a MF-830 Microforge (Narishige International USA, Inc, Amityville, N.Y.) to have a resistance of 1.5-2.5 MΩ when filled with CsCl internal solution at room temperature. Healthy cells (those that are round and translucent with no visible blemishes) were chosen for seal formation. A seal was formed between the pipette and the cell, and a brief pulse of suction was used to “break in” and establish the whole-cell configuration. The membrane potential was held at −100 mV before the voltage protocol began. Only cells with series resistance between 1.5-5 MΩ were retained for analysis. The voltage protocol was as follows: Cells were held at −100 mV for 12 ms followed by a hyperpolarizing step to −105 mV for 12 ms to monitor the leak. Cells were then stepped back to −100 mV for 40 ms. Cells were then depolarized to −20 mV for 10 ms and then returned to −100 mV for 26 ms.
Once the recording was started, the voltage protocol was run at 30 second intervals for 5 minutes to get a stable baseline. This was followed by four 30-second periods of 5 Hz stimulation of the same voltage protocol separated by 1 minute of rest which was then followed by 0.33 Hz stimulation after the last train. Currents were recorded using PatchMaster software with Heka EPC10 (HEKA Electronics, Lambrecht, Germany). Only cells with inward current amplitudes at −20 mV between 400 pA and 4 nA were accepted. In addition, cells having leak currents greater than 10% of their current amplitudes were discarded. […]

[4] = PAMPA membrane permeability assay; type: in vitro ADME; details: PAMPA permeability coefficient, GIT lipid, buffer pH 7.4, 4 hours incubation
Method: The PAMPA assay (pION, Inc., Woburn Mass.) was used to determine the ability of compounds of the invention to cross an artificial lipid membrane by passive diffusion. Test compounds were dissolved in DMSO (10 mM) and diluted 200-fold in buffer (pION Inc., pH 7.4) to provide 50 uM stock solutions. Buffer (150 μL) was added to a UV blank plate and stock solutions (150 μL) were transferred to a UV reference plate. The blank and reference spectrum were read using a spectrophotometer. Stock solutions (200 μL) were added to the donor plate of the PAMPA sandwich plate and an accept plate painted with GIT lipid (pION Inc, 5 μL) was placed on top. Buffer (200 μL) was added to the acceptor plate and the PAMPA sandwich plate was incubated for 4 hours. Aliquots (150 μL) from the acceptor plate were added to a UV plate and read as acceptor spectrum. Aliquots (150 μL) of the donor solutions were added to a UV analysis plate and read as donor spectrum. The permeability coefficient of test compounds was calculated using PAMPA Explorer™ software (version 3.5.0.4) based on the AUC of the reference plate, the donor plate, and the acceptor plate.

T1 sequence (Q15858 whole entry): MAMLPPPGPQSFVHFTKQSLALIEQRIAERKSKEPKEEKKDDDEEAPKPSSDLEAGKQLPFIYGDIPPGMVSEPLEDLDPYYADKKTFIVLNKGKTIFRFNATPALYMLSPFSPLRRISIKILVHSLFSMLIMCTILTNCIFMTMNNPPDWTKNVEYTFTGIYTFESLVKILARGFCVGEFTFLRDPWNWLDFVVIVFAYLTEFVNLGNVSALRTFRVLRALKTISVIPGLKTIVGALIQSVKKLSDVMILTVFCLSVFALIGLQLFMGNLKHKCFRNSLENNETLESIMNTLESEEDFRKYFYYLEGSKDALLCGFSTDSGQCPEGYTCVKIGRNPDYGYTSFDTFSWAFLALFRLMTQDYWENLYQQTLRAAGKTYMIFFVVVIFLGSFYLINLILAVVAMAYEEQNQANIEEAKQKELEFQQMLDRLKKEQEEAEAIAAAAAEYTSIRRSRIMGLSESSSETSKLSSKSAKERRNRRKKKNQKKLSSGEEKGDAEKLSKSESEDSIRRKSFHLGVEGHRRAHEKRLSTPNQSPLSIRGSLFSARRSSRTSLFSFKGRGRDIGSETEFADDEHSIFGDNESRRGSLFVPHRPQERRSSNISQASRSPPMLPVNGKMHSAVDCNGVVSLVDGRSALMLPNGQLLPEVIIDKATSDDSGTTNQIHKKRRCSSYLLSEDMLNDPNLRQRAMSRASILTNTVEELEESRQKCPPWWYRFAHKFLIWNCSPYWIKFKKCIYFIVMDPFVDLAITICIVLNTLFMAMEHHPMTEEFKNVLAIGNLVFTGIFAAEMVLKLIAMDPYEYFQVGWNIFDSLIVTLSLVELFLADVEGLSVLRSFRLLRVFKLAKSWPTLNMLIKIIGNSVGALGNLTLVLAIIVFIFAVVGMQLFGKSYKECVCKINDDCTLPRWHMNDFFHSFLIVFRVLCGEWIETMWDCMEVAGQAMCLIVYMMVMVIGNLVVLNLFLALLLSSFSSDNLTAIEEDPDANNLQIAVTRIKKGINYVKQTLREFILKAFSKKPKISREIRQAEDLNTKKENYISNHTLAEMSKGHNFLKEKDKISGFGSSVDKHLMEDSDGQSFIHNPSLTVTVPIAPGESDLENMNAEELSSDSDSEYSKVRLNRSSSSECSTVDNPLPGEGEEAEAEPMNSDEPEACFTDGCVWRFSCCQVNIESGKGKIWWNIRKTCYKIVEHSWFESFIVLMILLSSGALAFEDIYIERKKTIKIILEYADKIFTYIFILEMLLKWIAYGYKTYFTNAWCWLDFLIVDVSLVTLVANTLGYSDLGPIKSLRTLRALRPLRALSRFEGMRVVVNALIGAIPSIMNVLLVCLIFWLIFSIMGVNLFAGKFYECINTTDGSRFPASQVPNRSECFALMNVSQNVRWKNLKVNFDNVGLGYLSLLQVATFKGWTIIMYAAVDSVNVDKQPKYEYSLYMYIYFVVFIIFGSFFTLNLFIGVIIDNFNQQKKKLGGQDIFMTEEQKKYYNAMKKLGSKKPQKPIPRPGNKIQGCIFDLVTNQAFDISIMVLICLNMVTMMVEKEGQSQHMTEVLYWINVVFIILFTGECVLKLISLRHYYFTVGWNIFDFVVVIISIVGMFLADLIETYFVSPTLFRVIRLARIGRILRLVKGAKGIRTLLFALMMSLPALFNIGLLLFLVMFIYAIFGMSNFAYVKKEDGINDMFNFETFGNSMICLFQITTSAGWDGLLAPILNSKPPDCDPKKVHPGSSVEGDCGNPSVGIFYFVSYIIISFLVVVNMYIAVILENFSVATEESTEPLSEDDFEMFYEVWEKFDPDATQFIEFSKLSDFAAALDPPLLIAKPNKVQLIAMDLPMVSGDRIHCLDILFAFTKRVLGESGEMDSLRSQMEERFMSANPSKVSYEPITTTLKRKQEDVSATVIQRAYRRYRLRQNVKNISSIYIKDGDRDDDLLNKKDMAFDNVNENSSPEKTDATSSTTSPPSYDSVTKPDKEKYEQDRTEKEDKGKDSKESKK

Row | Compound | IC50 (NaV1.7 [1]) [µM] | IC50 (NaV1.7 [2]) [µM] | inhibition at 10 µM (NaV1.7 [3]) [%] | PAMPA (10^−6 cm/s) [4] | inhibition at 32 µM (NaV1.7 [3]) [%]
1 | COc1cc(C#N)c[n+](CC(=O)Nc2c(C)cccc2C)c1 [Compound 97] | 10 to 30 | < 10 | 70 to 95 | – | –
2 | Cc1cccc(C)c1NC(=O)C[n+]1c2ccc(Cl)cc2cn1C [Compound 96] | 3 to 10 | 30 to 100 | 70 to 95 | – | –
3 | Cc1cccc(C)c1NC(=O)C[n+]1cc(CO)n(C(C)C)c1 [Compound 59] | 10 to 30 | – | 70 to 95 | ++ (0.1-2.0 10^−6 cm/s) | –
4 | Cc1cccc(C)c1NC(=O)Cn1cc[n+](CC(=O)Nc2c(C)cccc2C)c1 [Compound 110] | 10 to 30 | – | 70 to 95 | ++ (0.1-2.0 10^−6 cm/s) | –
5 | Cc1cccc(C)c1NC(=O)C[n+]1cc(-c2ccccc2)n(C)c1 [Compound 24] | 3 to 10 | > 100 | – | – | –
6 | Cc1cccc(C)c1NC(=O)C[n+]1cccc(C2CC2)c1 [Compound 22] | 3 to 10 | 30 to 100 | – | – | –
7 | Cc1cccc(C)c1NC(=O)C[n+]1cccc(N)c1 [Compound 49] | 3 to 10 | > 100 | 70 to 95 | – | –
8 | Cc1cccc(C)c1NC(=O)C[n+]1ccccc1-c1ccccc1 [Compound 16] | 1 to 3 | > 100 | – | – | –
9 | Cc1cccc(C)c1NC(=O)C[n+]1cccn1CC(C)C [Compound 27] | 1 to 3 | > 100 | – | – | –
10 | Cc1cccc(C)c1NC(=O)C[n+]1cccn1-c1ccccc1 [Compound 29] | 3 to 10 | > 100 | – | – | –
11 | Cc1cc(C#N)cc(C)c1NC(=O)C[n+]1ccccc1.[Br-] [Compound 11A, 1-(2-((4-cyano-2,6-dimethylphenyl)amino)-2-oxoethyl) pyridin-1-ium bromide] | – | – | – | + (<0.1 10^−6 cm/s) | < 40
12 | Cc1cccc(C)c1NC(=O)C[n+]1cccc(-c2nn[nH]n2)c1 [Compound 53] | 10 to 30 | – | < 40 | + (<0.1 10^−6 cm/s) | –
13 | Cc1cccc(C)c1NC(=O)C[n+]1ccccc1.[Br-] [Compound 1A, 1-(2-((2,6-dimethylphenyl)amino)-2-oxoethyl) pyridin-1-ium bromide] | – | – | – | ++ (0.1-2.0 10^−6 cm/s) | 70 to 95
14 | Cc1cccc(C)c1NC(=O)C[n+]1ccc2ccccc2c1.[Br-] [Compound 15A] | – | – | – | ++ (0.1-2.0 10^−6 cm/s) | > 95
15 | CCNC(=O)Cn1ccc[n+]1CC(=O)Nc1c(C)cccc1C [Compound 30] | 1 to 3 | > 100 | – | – | –

Results, then the molecule that gave them:

Row | IC50 (NaV1.7 [1]) [µM] | IC50 (NaV1.7 [2]) [µM] | inhibition at 10 µM (NaV1.7 [3]) [%] | PAMPA (10^−6 cm/s) [4] | inhibition at 32 µM (NaV1.7 [3]) [%] | Compound
16 | 1 to 3 | > 100 | – | – | – | Cc1cccc(C)c1NC(=O)C[n+]1c(C)cccc1C [Compound 6]
17 | 1 to 3 | < 10 | – | – | – | Cc1cccc(C)c1NC(=O)C[n+]1cc(-c2ccccc2)c2ccccc2c1 [Compound 100]
18 | 1 to 3 | 10 to 30 | – | – | – | Cc1cccc(C)c1NC(=O)C[n+]1cccc(-c2ccccc2)c1 [Compound 12]
19 | < 1 | < 10 | – | – | – | Cc1cccc(C)c1NC(=O)C[n+]1c(C)ccc(-c2ccccc2)c1C [Compound 23]
20 | 1 to 3 | 30 to 100 | > 95 | – | – | Cc1cccc(C)c1NC(=O)C[n+]1cc(F)ccc1-c1ccccc1 [Compound 79]
21 | < 1 | 30 to 100 | – | – | – | Cc1cccc(C)c1NC(=O)C[n+]1cccn1C1CCCCC1 [Compound 28]
22 | 1 to 3 | > 100 | 70 to 95 | – | – | Cc1cccc(C)c1NC(=O)C[n+]1cccc(C(C)(C)C)c1 [Compound 32]
23 | < 1 | < 10 | – | – | – | Cc1cccc(C)c1NC(=O)C[n+]1cccc(C2CCCC2)c1 [Compound 21]
24 | 1 to 3 | – | – | – | – | Cc1cccc(C)c1NC(=O)C[n+]1cccc(C(=O)OC2CCCC2)c1 [Compound 105]
